Values belong to the compound of their own block, whether it stands above or below them.
Key:
[1] = Solubility of boronates in room temperature THF (NMR vs internal standard); type: physicochemical
Experimental: To determine the solubility of each boronate given in the following table, a concentrated solution was prepared by repeated addition to a small amount (˜200 μL) of room temperature THF in a 7-mL vial until solid no longer dissolved upon stirring. The vials were then allowed to stir at room temperature overnight. […] 100 μL of the mixture was then filtered and had solvent removed. The residue was then taken up in 500 μL DMSO-d6 containing 1,4-dimethoxybenzene (˜0.01 M) as an internal standard and transferred to an NMR tube. The concentrations of the solutions were then determined by integration relative to internal standard. In each case, the measurements are an average of two experiments.

[2] = Hydrolysis of MIDA boronate derivatives under slow release conditions (K3PO4, THF-d8/D2O, 60° C., 1H NMR); type: physicochemical; conditions: for krel, relative rate constant for hydrolysis with respect to MIDA (krel=1): 5:1 THF-d8:D2O, 7.5 eq. K3PO4, 60° C.; for boronate remaining: at 6 hours; for reduction in the rate of hydrolysis: relative to MIDA boronate
Experimental: Compounds 1-6 (FIG. 4A) were prepared and then characterized in terms of their rates of hydrolysis under defined conditions relative to MIDA compound 4. Reaction conditions were: 5:1 THF-d8:D2O, 0.07 M in boronate, 7.5 eq. K3PO4, 60° C. Reactions were stirred for 0.5 to 2.0 h before being cooled and diluted with DMSO-d6 containing 1,4-dimethoxybenzene as an internal standard. ^1H NMR was taken immediately to determine % boronate remaining. For compounds 1, 2, and 3, n=2 and the average between the two runs is represented in the figure.
To each of twelve 1 mL conical vials equipped with stirring vanes was added 100 μL (0.08 M, 0.008 mmol) of a THF-d8 solution of the indicated boronate, followed by 20 μL (3.0 M, 0.06 mmol, 7.5 eq.) of a D2O solution of K3PO4. Each vial was then capped, shaken briefly to mix, and then stirred in a 60° C. heat block at 800 RPM. At the indicated times, two vials were removed from the heat block, cooled briefly under a stream of air, and then had 680 μL DMSO-d6 containing 1,4-dimethoxybenzene (˜0.008 M) as an internal standard added. The vials were then again briefly capped, shaken to mix, and the solutions were then immediately transferred to NMR tubes and spectra were taken (16 scans, d1=10 s). Time points were taken at 0, 0.5, 1, 1.5, 2.0, 4.0, and 6.0 hours. The solutions for the 0 time points were made directly in the NMR tubes, shaken, and then had spectra obtained. The percentage boronate remaining was determined by average the integration of the aryl protons (which fully resolved from the corresponding aryl protons on the parent boronic acid) across the two runs, except in the case of octyl TIDA boronate, for which the terminal methyl group of the octyl chain was used. Relative rate constants were obtained by assuming pseudo-first order kinetics and plotting the natural log of percentage boronate remaining vs time (ie. ln([boronate]/[boronate]o) vs t) (FIG. 13).
Each time point represents the average of n=2 experiments, except in the case of the N-Cy and N-iPr MIDA, for which n=1.

[3] = slow release hydrolysis conditions

Compound: p-Tolyl DiethylMIDA Boronate
- krel, relative rate constant for hydrolysis with respect to MIDA (krel=1) [2]: 0.12

Compound: p-Tolyl DimethylMIDA Boronate
- krel, relative rate constant for hydrolysis with respect to MIDA (krel=1) [2]: 0.08
- boronate remaining [2, 3]: ~80%
- rate of hydrolysis with added phase transfer catalyst (in words) ([2]; free dibutyl ligand or tetrabutylammonium bromide added): hydrolyzed faster than the lone boronate
- reduction in the rate of hydrolysis [2]: 12.5 fold

Compound: CN1CC(=O)OB(c2ccc(C=O)o2)OC(=O)C1 [5-Formyl-2-furyl MIDA boronate, reference compound]
- solubility in THF [1]: trace

Compound: p-Tolyl DibutylMIDA boronate [R=nBu]
- boronate remaining [2, 3]: about 25%

Compound: Octyl TIDA Boronate [octylTIDA boronate]
- hydrolysis after 6 hours (in words) ([2]; after 6 hours, slow release hydrolysis conditions): no measurable hydrolysis
- solubility in THF (in words) [1]: completely soluble

Now from value to compound:

- solubility in THF (in words) [1]: lack of solubility
Compound: Cc1ccc([B-]23OC(=O)C(C)(C)[N+]2(C)C(C)(C)C(=O)O3)cc1 (stereo not shown) [p-tolylTIDA boronate, p-Tolyl TIDA Boronate]

- solubility in THF [1]: 212 mM
Compound: 5-Formyl-2-furanyl TIDA Boronate

- krel, relative rate constant for hydrolysis with respect to MIDA (krel=1) [2]: 0.092
- reduction in the rate of hydrolysis [2]: 10.9 fold
Compound: p-Tolyl SchMIDA Boronate

— patent US10844081B2, “Protected organoboronic acids with tunable reactivity, and methods of use thereof” (The Board of Trustees of the University of Illinois, priority 2015, dated 2020)
